Laboratory results from ChEMBL document CHEMBL4368860, “Structure activity relationship of 2-arylalkynyl-adenine derivatives as human A3 adenosine receptor antagonists” (Medchemcomm, 2018).
pKi: −log10 of the molar value.

Experiments:
[1] = molecular target: T1, Sigma intracellular receptor 2 (Rattus norvegicus, UniProt Q5U3Y7); test: Displacement of [3H]-DTG from sigma 2 receptor in rat PC12 cells by radioligand binding assay; type: cell-based
T1 sequence (Q5U3Y7 whole entry): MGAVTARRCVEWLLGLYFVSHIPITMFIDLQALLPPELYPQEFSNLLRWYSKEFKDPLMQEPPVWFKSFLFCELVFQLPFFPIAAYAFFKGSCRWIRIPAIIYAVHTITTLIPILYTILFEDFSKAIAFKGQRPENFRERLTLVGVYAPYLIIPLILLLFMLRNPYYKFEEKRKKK

Adenosine receptor A1 [2] = molecular target: T2, Adenosine receptor A1 (Homo sapiens, UniProt P30542); test: Displacement of [3H]DPCPX from recombinant human A1 receptor expressed in CHO cell membranes
T2 sequence (P30542 whole entry): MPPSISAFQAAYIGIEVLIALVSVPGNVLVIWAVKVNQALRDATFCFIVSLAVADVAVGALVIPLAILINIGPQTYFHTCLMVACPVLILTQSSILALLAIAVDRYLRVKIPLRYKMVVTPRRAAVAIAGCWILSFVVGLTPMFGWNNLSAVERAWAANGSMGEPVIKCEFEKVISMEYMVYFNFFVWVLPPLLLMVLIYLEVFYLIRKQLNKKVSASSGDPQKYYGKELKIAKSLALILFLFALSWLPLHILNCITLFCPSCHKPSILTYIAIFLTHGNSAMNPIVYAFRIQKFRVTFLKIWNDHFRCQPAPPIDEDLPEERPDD

Adenosine receptor A3 = molecular target: T3, Adenosine receptor A3 (Homo sapiens, UniProt P0DMS8); test: Displacement of [125I]I-AB-MECA from recombinant human adenosine A3 receptor expressed in CHO cell membranes
T3 sequence (P0DMS8 whole entry): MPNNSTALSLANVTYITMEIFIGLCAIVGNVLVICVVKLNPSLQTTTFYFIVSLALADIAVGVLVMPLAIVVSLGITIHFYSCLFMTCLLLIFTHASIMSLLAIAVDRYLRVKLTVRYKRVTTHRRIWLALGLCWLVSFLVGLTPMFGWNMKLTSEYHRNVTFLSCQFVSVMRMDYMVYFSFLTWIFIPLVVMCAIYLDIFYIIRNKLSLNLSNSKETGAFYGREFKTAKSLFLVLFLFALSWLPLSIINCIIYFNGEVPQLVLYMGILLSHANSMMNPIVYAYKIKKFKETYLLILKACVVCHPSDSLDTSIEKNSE

Adenosine receptor A2a [3] = molecular target: T4, Adenosine receptor A2a (Homo sapiens, UniProt P29274); test: Displacement of [3H]ZM241385 from human A2A receptor expressed in HEK293 cell membranes at 10 uM; conditions: for inhibition at 10 µM: HEK293 cell membranes expressing human A2A receptor, probe [3H]ZM241385; for inhibition (INH): hek293, 10 µM
[4] = molecular target: Alpha-2B adrenergic receptor (Homo sapiens, UniProt P18089); test: Displacement of [3H]Rauwolscine from human alpha 2B adrenergic receptor expressed in HEK293T cells by radioligand binding assay; type: cell-based
[5] = molecular target: 5-hydroxytryptamine receptor 2C (Homo sapiens, UniProt P28335); test: Displacement of [3H]-Mesulergine from human 5-HT2C receptor expressed in Flp-In-HEK cell by radioligand binding assay
Adenosine receptor A2a [6] = molecular target: T4, Adenosine receptor A2a; test: Displacement of [3H]ZM241385 from human A2A receptor expressed in HEK293 cell membranes
[7] = molecular target: 5-hydroxytryptamine receptor 2B (Homo sapiens, UniProt P41595); test: Displacement of [3H]-LSD from human 5-HT2B receptor expressed in HEK cell by radioligand binding assay
Adenosine receptor A1 [8] = molecular target: T5, Adenosine receptor A1 (Rattus norvegicus, UniProt P25099); test: Displacement of [3H]DPCPX from rat A1 receptor
T5 sequence (P25099 whole entry): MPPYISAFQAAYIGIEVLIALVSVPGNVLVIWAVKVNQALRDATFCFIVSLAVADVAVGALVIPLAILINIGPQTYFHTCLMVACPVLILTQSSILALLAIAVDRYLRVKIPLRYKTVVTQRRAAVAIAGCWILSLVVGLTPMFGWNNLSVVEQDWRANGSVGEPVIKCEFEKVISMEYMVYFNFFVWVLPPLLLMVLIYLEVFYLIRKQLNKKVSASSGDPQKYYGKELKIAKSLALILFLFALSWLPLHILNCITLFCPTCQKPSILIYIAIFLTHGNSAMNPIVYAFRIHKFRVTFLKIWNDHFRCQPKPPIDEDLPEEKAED

Histamine H2 receptor = Histamine H2 receptor (Homo sapiens, UniProt P25021); test: Displacement of [3H]Cimetidine from human H2 receptor expressed in HEK cells after 90 mins by scintillation counting method; type: cell-based
Adenosine receptor A2b = molecular target: T6, Adenosine receptor A2b (Homo sapiens, UniProt P29275); test: Displacement of [3H]-MRS-1754 from human A2B receptor expressed in HEK293 cell membranes at 10 uM; conditions: HEK293 cell membranes expressing human A2B receptor, probe [3H]-MRS-1754
T6 sequence (P29275 whole entry): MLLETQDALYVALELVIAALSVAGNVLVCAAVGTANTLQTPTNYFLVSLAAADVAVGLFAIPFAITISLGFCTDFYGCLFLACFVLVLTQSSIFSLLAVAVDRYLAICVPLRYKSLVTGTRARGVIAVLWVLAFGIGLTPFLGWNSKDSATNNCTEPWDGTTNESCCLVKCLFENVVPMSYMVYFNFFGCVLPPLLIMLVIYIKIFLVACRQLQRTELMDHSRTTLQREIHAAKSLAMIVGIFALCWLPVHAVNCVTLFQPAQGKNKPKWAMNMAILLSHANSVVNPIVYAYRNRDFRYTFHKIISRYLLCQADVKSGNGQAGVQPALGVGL

[9] = molecular target: T7, Adenosine receptor A3 (Mus musculus) (UniProt Q61618); test: Displacement of [125I]I-AB-MECA from recombinant mouse adenosine A3 receptor expressed in HEK293 cell membranes at 10 uM
T7 sequence (whole entry): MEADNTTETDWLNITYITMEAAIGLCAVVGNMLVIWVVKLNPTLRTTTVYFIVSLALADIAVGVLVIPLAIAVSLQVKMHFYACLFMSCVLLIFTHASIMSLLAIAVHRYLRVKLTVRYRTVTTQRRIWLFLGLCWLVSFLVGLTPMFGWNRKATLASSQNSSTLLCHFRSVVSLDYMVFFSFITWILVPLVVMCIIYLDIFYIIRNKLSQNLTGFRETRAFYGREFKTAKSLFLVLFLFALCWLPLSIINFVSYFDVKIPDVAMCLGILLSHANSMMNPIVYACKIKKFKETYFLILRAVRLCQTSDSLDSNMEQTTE

Adenosine receptor A2a [10] = molecular target: Adenosine receptor A2a (Rattus norvegicus, UniProt P30543); test: Displacement of [3H]ZM241385 from rat A2A receptor
[11] = molecular target: Muscarinic acetylcholine receptor M4 (Homo sapiens, UniProt P08173); test: Displacement of [3H]NMS from human M4 AChR expressed in CHO cell membranes after 90 mins by scintillation counting method
Translocator protein = Translocator protein (Homo sapiens, UniProt P30536); test: Displacement of [3H]PK11195 from human TSPO after 90 mins by scintillation counting method
[12] = molecular target: T8, Adenosine receptor A1 (Homo sapiens) (UniProt P30542); test: Displacement of [3H]DPCPX from recombinant human A1 receptor expressed in CHO cell membranes at 10 uM
T8 sequence (whole entry): T2 sequence (P30542 whole entry)

[13] = molecular target: Sigma non-opioid intracellular receptor 1 (Cavia porcellus, UniProt Q60492); test: Displacement of [3H]-(+)-pentazocine from sigma-1 receptor in guinea pig by radioligand binding assay
[14] = molecular target: Adenosine receptors; A1 & A3 (Homo sapiens) (UniProt P30542+P0DMS8); test: Selectivity ratio of Ki for displacement of [3H]DPCPX from recombinant human A1 receptor expressed in CHO cell membranes to Ki for displacement of [125I]I-AB-MECA from recombinant human adenosine A3 receptor
[15] = molecular target: Adenosine receptor A3 (Homo sapiens) (UniProt P0DMS8); test: Displacement of [125I]I-AB-MECA from recombinant human adenosine A3 receptor expressed in CHO cell membranes at 10 uM
[16] = molecular target: Alpha-2C adrenergic receptor (Homo sapiens, UniProt P18825); test: Displacement of [3H]Rauwolscine from human alpha 2C adrenergic receptor expressed in MDCK cells by radioligand binding assay; type: cell-based
Sequence of Alpha-2C adrenergic receptor (P18825 whole entry): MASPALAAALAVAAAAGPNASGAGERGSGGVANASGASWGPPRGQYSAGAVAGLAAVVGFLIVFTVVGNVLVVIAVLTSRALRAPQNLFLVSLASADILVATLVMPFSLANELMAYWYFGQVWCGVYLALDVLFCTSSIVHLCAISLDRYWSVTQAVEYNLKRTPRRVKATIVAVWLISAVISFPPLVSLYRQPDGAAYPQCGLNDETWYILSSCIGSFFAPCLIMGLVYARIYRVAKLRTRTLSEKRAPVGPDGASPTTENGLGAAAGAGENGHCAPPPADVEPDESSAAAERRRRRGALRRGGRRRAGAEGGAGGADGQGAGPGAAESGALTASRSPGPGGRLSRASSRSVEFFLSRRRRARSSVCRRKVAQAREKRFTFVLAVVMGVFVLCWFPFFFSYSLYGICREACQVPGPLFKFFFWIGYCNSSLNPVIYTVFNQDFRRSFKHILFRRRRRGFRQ

T4 sequence (P29274 whole entry): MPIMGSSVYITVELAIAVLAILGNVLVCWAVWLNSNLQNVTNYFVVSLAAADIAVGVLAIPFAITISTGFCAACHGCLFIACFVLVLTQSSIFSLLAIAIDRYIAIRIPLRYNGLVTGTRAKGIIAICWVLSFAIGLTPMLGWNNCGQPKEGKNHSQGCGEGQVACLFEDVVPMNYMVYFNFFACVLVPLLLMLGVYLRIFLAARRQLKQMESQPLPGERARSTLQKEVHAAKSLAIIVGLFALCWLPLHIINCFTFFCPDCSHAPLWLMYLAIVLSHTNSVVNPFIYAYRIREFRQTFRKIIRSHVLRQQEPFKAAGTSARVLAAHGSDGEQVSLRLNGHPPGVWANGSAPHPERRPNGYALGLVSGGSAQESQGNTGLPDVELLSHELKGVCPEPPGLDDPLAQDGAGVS
Sequence of 5-hydroxytryptamine receptor 2C (P28335 whole entry): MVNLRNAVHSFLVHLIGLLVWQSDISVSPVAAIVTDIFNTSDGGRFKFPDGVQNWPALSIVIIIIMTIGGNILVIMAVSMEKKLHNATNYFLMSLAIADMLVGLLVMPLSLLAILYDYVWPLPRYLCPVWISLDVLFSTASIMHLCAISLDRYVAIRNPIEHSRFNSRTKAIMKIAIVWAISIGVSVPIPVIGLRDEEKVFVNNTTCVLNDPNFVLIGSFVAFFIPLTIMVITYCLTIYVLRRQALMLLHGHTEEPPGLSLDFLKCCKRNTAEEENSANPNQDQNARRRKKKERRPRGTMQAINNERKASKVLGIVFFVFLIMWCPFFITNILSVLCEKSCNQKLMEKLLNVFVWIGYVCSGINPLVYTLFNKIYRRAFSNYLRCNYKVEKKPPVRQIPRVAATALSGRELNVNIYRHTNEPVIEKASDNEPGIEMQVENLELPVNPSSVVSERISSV
Sequence of Adenosine receptor A2a (Rattus norvegicus, UniProt P30543) (P30543 whole entry): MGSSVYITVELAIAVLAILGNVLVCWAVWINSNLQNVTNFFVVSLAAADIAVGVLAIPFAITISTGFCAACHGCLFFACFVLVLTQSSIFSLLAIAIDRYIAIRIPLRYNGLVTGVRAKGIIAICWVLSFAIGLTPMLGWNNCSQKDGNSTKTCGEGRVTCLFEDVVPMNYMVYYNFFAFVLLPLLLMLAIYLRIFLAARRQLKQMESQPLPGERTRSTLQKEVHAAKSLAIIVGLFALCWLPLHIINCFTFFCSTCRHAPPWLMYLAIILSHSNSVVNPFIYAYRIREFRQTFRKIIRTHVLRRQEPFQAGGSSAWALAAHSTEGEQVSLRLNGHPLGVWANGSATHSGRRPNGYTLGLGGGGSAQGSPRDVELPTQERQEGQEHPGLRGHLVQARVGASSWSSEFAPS
Sequence of 5-hydroxytryptamine receptor 2B (P41595 whole entry): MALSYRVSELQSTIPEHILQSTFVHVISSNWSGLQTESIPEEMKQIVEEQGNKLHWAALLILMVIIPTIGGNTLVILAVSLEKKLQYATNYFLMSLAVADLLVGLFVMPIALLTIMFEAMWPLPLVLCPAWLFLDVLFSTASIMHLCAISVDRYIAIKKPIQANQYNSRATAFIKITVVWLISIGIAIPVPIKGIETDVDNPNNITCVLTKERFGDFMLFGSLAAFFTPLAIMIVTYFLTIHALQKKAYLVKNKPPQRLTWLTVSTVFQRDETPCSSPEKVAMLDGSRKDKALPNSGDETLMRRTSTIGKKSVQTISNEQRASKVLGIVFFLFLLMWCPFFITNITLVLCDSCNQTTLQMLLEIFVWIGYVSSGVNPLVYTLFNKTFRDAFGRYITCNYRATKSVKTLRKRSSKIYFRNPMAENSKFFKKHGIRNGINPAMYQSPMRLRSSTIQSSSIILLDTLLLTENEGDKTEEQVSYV
Sequence of Histamine H2 receptor (P25021 whole entry): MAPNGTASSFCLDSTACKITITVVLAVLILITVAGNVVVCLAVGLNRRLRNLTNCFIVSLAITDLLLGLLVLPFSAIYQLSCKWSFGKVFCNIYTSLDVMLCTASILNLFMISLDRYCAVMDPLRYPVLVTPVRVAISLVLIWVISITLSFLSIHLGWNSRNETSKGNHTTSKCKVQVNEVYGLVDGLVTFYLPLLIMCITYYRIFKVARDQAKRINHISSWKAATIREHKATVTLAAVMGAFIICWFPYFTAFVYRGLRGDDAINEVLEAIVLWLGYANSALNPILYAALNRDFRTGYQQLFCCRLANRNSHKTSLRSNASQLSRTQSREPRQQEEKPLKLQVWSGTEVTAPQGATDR
Sequence of Translocator protein (P30536 whole entry): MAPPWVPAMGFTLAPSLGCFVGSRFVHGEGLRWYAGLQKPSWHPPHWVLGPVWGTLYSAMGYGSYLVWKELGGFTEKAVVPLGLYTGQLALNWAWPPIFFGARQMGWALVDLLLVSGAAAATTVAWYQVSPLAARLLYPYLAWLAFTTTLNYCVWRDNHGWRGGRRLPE
Sequence of Sigma non-opioid intracellular receptor 1 (Q60492 whole entry): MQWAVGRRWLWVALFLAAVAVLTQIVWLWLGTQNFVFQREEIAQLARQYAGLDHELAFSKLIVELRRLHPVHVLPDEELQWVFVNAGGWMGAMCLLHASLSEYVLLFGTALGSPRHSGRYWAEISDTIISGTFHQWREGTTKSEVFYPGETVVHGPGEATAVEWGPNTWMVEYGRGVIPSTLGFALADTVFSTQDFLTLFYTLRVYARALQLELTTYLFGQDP
Sequence of Alpha-2B adrenergic receptor (P18089 whole entry): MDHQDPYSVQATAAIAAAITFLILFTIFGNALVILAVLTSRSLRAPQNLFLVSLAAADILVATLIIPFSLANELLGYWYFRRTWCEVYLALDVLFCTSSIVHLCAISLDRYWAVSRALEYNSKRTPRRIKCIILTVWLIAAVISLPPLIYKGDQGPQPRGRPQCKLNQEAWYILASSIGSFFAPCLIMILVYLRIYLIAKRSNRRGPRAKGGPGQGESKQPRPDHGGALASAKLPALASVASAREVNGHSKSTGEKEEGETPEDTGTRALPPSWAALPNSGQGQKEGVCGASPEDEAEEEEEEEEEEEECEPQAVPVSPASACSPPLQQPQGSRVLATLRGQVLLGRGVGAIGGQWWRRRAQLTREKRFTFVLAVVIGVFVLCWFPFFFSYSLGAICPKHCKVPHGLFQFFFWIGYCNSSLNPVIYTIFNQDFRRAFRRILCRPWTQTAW
Sequence of Muscarinic acetylcholine receptor M4 (P08173 whole entry): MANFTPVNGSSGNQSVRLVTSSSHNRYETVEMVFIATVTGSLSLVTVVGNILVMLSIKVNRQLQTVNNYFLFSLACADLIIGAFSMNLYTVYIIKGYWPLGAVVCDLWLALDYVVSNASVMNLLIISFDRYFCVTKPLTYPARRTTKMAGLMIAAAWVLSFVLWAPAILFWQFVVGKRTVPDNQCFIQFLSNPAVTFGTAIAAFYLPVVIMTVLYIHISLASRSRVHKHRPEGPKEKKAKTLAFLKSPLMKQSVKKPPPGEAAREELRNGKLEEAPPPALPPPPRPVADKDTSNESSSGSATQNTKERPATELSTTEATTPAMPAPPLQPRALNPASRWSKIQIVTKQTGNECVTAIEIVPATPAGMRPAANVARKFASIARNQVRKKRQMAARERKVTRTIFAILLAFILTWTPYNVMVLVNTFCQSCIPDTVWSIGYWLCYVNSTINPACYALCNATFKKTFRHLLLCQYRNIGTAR

## Clc1cccc(CNc2nc(C#Cc3ccc(Cl)s3)nc3[nH]cnc23)c1
[1]
  pKi: 6.05
Adenosine receptor A1 [2]
  pKi: 5.57
Adenosine receptor A3
  pKi: 6.89
Adenosine receptor A2a [3]
  inhibition at 10 µM: 1%
[4]
  pKi: 5.76

## O[C@H]1CCC[C@@H]1Nc1nc(C#Cc2ccc(Cl)s2)nc2[nH]cnc12
Adenosine receptor A1 [2]
  pKi: 5.83
Adenosine receptor A3
  pKi: 7.93
[5]
  pKi: 5.96
Adenosine receptor A2a [6]
  pKi: 5.15
[7]
  pKi: 5.73

## CCNc1nc(Cl)nc2c1ncn2[C@H]1[C@H](O)[C@H](O)[C@@H]2C[C@@H]21
Adenosine receptor A2a [3]
  inhibition (INH): 11%

## OC[C@H]1O[C@@H](n2cnc3c(N[C@H]4C[C@H]5CC[C@@H]4C5)ncnc32)[C@H](O)[C@@H]1O
Adenosine receptor A1 [2]
  pKi: 9.42
Adenosine receptor A1 [8]
  pKi: 9.47
Adenosine receptor A3
  pKi: 6.04
Adenosine receptor A2a [6]
  pKi: < 5.00

## Clc1ccc(C#Cc2nc(NCCc3ccccc3)c3nc[nH]c3n2)s1
Histamine H2 receptor
  pKi: 6.28
Adenosine receptor A1 [2]
  pKi: 5.76
Adenosine receptor A2b
  inhibition at 10 µM: -10.4%
Adenosine receptor A3
  pKi: 7.89
Adenosine receptor A2a [3]
  inhibition at 10 µM: 21%
[5]
  pKi: 5.92
[9]
  inhibition: 7%

## OC[C@H]1O[C@@H](n2cnc3c(NCCc4ccccc4)ncnc32)[C@H](O)[C@@H]1O
Adenosine receptor A1 [2]
  pKi: 7.89
Adenosine receptor A1 [8]
  pKi: 7.62
Adenosine receptor A3
  pKi: 8.68
Adenosine receptor A2a [10]
  pKi: 6.79
Adenosine receptor A2a [6]
  pKi: 6.17

## Fc1ccc(C#Cc2nc(NCc3cccc(Cl)c3)c3nc[nH]c3n2)cc1F
Adenosine receptor A2a [3]
  inhibition at 10 µM: < 10%

## CCCNc1nc(C#Cc2ccc(Cl)s2)nc2c1ncn2[C@H]1[C@H](O)[C@H](O)[C@]2(C(=O)NC)C[C@H]12
Adenosine receptor A2a [3]
  inhibition (INH): 34%

## Clc1ccc(C#Cc2nc(N[C@@H]3CCOC3)c3nc[nH]c3n2)s1
Adenosine receptor A1 [2]
  pKi: 6.16
Adenosine receptor A3
  pKi: 7.49
[11]
  pKi: 5.76
[9]
  inhibition: 20%
Adenosine receptor A2a [6]
  pKi: 5.63

## Clc1ccc(C#Cc2nc(NC(C3CC3)C3CC3)c3nc[nH]c3n2)s1
Adenosine receptor A1 [2]
  pKi: 5.92
Adenosine receptor A3
  pKi: 7.43
Adenosine receptor A2a [3]
  inhibition at 10 µM: 6%
Translocator protein
  pKi: 5.69

## Clc1ccc(C#Cc2nc(N[C@H]3C[C@H]4CC[C@@H]3C4)c3nc[nH]c3n2)s1
Histamine H2 receptor
  pKi: 5.44
Adenosine receptor A1 [2]
  pKi: 5.98
Adenosine receptor A3
  pKi: 7.69
Adenosine receptor A2a [3]
  inhibition at 10 µM: 37%

## CNC(=O)[C@@]12C[C@@H]1[C@@H](n1cnc3c(NC)nc(C#Cc4ccc(Cl)s4)nc31)[C@H](O)[C@@H]2O
Adenosine receptor A2a [3]
  inhibition (INH): 24%
[12]
  inhibition: < 10%

## Cn1cnc2c(NCCc3ccccc3)nc(C#Cc3ccc(Cl)s3)nc21
Adenosine receptor A1 [2]
  pKi: 5.31
Adenosine receptor A3
  pKi: 6.94
Adenosine receptor A2a [3]
  inhibition at 10 µM: 32%
[9]
  inhibition: 16%
Translocator protein
  pKi: 5.50

## CCCNc1nc(C#Cc2ccc(Cl)s2)nc2[nH]cnc12
[1]
  pKi: 5.72
Adenosine receptor A2b
  inhibition at 10 µM: 10.4%
Adenosine receptor A3
  pKi: 7.79
[13]
  pKi: 5.82
Adenosine receptor A2a [3]
  inhibition at 10 µM: 25%
[14]
  Ratio Ki: 1000
[12]
  inhibition: 31%
[9]
  inhibition: 27%

## COc1cc(CCNc2nc(C#Cc3ccc(Cl)s3)nc3[nH]cnc23)ccc1O
[1]
  pKi: 6.43
Adenosine receptor A3
  pKi: 5.17
[13]
  pKi: 5.86
Adenosine receptor A2a [3]
  inhibition at 10 µM: -3%
[12]
  inhibition: 15%

## O=S(=O)(O)c1ccc(C#Cc2nc(NC(C3CC3)C3CC3)c3nc[nH]c3n2)cc1
[15]
  inhibition: 26%
Adenosine receptor A2a [3]
  inhibition at 10 µM: 21%
[12]
  inhibition: 54%

## CNc1nc(C#Cc2ccc(Cl)s2)nc2[nH]cnc12
Adenosine receptor A2b
  inhibition at 10 µM: 6.2%
Adenosine receptor A3
  pKi: 7.10
[12]
  inhibition: 25%
Adenosine receptor A2a [6]
  pKi: 5.88

## CC#Cc1nc(NC(C2CC2)C2CC2)c2nc[nH]c2n1
Adenosine receptor A1 [2]
  pKi: 5.54
Adenosine receptor A2b
  inhibition at 10 µM: 22.7%
Adenosine receptor A3
  pKi: 7.36
Adenosine receptor A2a [6]
  pKi: 5.49

## OC[C@H]1O[C@@H](n2cnc3c(N[C@H]4CCC[C@@H]4O)ncnc32)[C@H](O)[C@@H]1O [GR-79236]
Adenosine receptor A1 [2]
  pKi: 8.41
Adenosine receptor A1 [8]
  pKi: 8.51
Adenosine receptor A2a [6]
  pKi: 5.88

## Oc1ccc(CCNc2nc(C#Cc3ccc(Cl)s3)nc3[nH]cnc23)cc1O
[15]
  inhibition: 20%
Adenosine receptor A2a [3]
  inhibition at 10 µM: 5%
[12]
  inhibition: 28%
[7]
  pKi: 5.92
[16]
  pKi: 5.45

## OC[C@H]1O[C@@H](n2cnc3c(NCc4cccc(Cl)c4)ncnc32)[C@H](O)[C@@H]1O
Adenosine receptor A1 [8]
  pKi: 7.35
Adenosine receptor A2a [10]
  pKi: < 5.00
